Data from patent US11497212B2, “Substituted thiophenyl uracils, salts thereof and the use thereof as herbicidal agents” (Syngenta Crop Protection AG, priority 2017, dated 2022).

Experiments:
Type in all cases: in vivo
Glycine max [1] = experiment: Crop compatibility pre-emergence (greenhouse pot trial); details: application rate 80 g/ha, effect vs untreated controls
Excerpt: (§1) Seeds of mono- and dicotyledonous weeds and crop plants were laid out in plastic or organic plant pots and covered with soil. The compounds of the invention formulated in the form of wettable powders (WP) or emulsion concentrates (EC) were then applied to the surface of the covering soil as an aqueous suspension or emulsion with addition of 0.5% additive at a water application rate equivalent to 600 L/ha. After the treatment, the pots were placed in a greenhouse and kept under good growth conditions for the test plants. After about 3 weeks, the efficacy of the preparations was scored visually as a percentage by comparison with untreated controls. For example, 100% efficacy=plants have died, 0% efficacy=like control plants.
(§2) Crop compatibilities were also scored correspondingly.
(§3) The effects observed are reported here on selected crop plants by comparison with the untreated controls (values in %).

Zea mays [2] = experiment: as above; details: application rate 80 g/ha, effect vs untreated controls
Excerpt: as §1, §2, §3

Oryza sativa = experiment: Crop compatibility post-emergence (greenhouse pot trial)
Summary of the method: (§4)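 Crops grown in sandy loam in greenhouse, sprayed at one-leaf stage (2–3 weeks after sowing) with WP or EC formulations in water plus 0.5% additive, 600 L/ha. Damage scored visually after about 3 weeks versus untreated controls, 0% = like control, 100% = dead.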

Triticum aestivum = experiment: as above
Summary of the method: as §4

Zea mays [3] = experiment: as above; details: application rate 20 g/ha
Summary of the method: as §4

Pharbitis purpurea [4] = experiment: Herbicidal action post-emergence (greenhouse pot trial); details: application rate 20 g/ha
Summary of the method: (§5)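 Percent herbicidal efficacy, assessed by eye about 3 weeks after spraying, compares treated with untreated plants. Treatment is a post-emergence spray at the one-leaf stage, using a WP or EC preparation plus 0.5% additive in 600 L/ha of water, at 80 g/ha or lower.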

Matricaria inodora [5] = experiment: as above; details: application rate 20 g/ha, scored visually after about 3 weeks vs untreated controls
Summary of the method: as §5

Veronica persica = experiment: as above; details: application rate 20 g/ha
Summary of the method: as §5

Viola tricolor [6] = experiment: as above; details: application rate 20 g/ha
Summary of the method: as §5

Amaranthus retroflexus [7] = experiment: as above; details: application rate 20 g/ha, scored visually after about 3 weeks vs untreated controls
Summary of the method: as §5

Polygonum convolvulus = experiment: as above; details: application rate 20 g/ha, scored visually after about 3 weeks vs untreated controls
Summary of the method: as §5

Abutilon theophrasti [8] = experiment: as above; details: application rate 20 g/ha, scored visually after about 3 weeks vs untreated controls
Summary of the method: as §5

Stellaria media = experiment: as above; details: application rate 20 g/ha, scored visually after about 3 weeks vs untreated controls
Summary of the method: as §5

Matricaria inodora [9] = experiment: Herbicidal action pre-emergence (greenhouse pot trial); details: scored after about 3 weeks
Excerpt: as §1, with “control plants. Tables B1 to B16 below show the efficacies of selected compounds of the general formula (I) according to tables I.1 to I.60 on various harmful plants and an application rate corresponding to 320 g/ha or lower that were obtained by the aforementioned trial method.” for “control plants.”

Viola tricolor [10] = experiment: as above; details: scored after about 3 weeks
Excerpt: as §1, with “control plants. Tables B1 to B16 below show the efficacies of selected compounds of the general formula (I) according to tables I.1 to I.60 on various harmful plants and an application rate corresponding to 320 g/ha or lower that were obtained by the aforementioned trial method.” for “control plants.”

Amaranthus retroflexus [11] = experiment: as above; details: scored after about 3 weeks
Excerpt: as §1, with “control plants. Tables B1 to B16 below show the efficacies of selected compounds of the general formula (I) according to tables I.1 to I.60 on various harmful plants and an application rate corresponding to 320 g/ha or lower that were obtained by the aforementioned trial method.” for “control plants.”

Abutilon theophrasti [12] = experiment: as above; details: scored after about 3 weeks
Excerpt: as §1, with “control plants. Tables B1 to B16 below show the efficacies of selected compounds of the general formula (I) according to tables I.1 to I.60 on various harmful plants and an application rate corresponding to 320 g/ha or lower that were obtained by the aforementioned trial method.” for “control plants.”

Glycine max [13] = experiment: Crop compatibility post-emergence (greenhouse pot trial); details: application rate 20 g/ha
Summary of the method: as §4

Setaria viridis [14] = experiment: Herbicidal action pre-emergence (greenhouse pot trial); details: application rate 320 g/ha, scored after about 3 weeks
Excerpt: as §1, with “control plants. Tables B1 to B16 below show the efficacies of selected compounds of the general formula (I) according to tables I.1 to I.60 on various harmful plants and an application rate corresponding to 320 g/ha or lower that were obtained by the aforementioned trial method.” for “control plants.”

Pharbitis purpurea [15] = experiment: as above; details: application rate 320 g/ha
Excerpt: as §1, with “control plants. Tables B1 to B16 below show the efficacies of selected compounds of the general formula (I) according to tables I.1 to I.60 on various harmful plants and an application rate corresponding to 320 g/ha or lower that were obtained by the aforementioned trial method.” for “control plants.”

Echinochloa crus-galli [16] = experiment: as above; details: application rate 320 g/ha, scored after about 3 weeks
Excerpt: as §1, with “control plants. Tables B1 to B16 below show the efficacies of selected compounds of the general formula (I) according to tables I.1 to I.60 on various harmful plants and an application rate corresponding to 320 g/ha or lower that were obtained by the aforementioned trial method.” for “control plants.”

Setaria viridis [17] = experiment: Herbicidal action post-emergence (greenhouse pot trial); details: application rate 20 g/ha, scored visually after about 3 weeks vs untreated controls
Summary of the method: as §5

Lolium rigidum = experiment: as above; details: application rate 20 g/ha, scored visually after about 3 weeks vs untreated controls
Summary of the method: as §5

Echinochloa crus-galli [18] = experiment: as above; details: application rate 20 g/ha, scored visually after about 3 weeks vs untreated controls
Summary of the method: as §5

Digitaria sanguinalis = experiment: as above; details: application rate 20 g/ha
Summary of the method: as §5

Alopecurus myosuroides = experiment: as above; details: application rate 20 g/ha, scored visually after about 3 weeks vs untreated controls
Summary of the method: as §5

Glycine max (Efficacy in %) (Glycine max [1]) [%]	Zea mays (Efficacy in %) (Zea mays [2]) [%]	Oryza sativa (Efficacy in %) (Oryza sativa; application rate 20 g/ha) [%]	Zea mays (Efficacy in %) (Zea mays [3]) [%]	Structure (SMILES)	Pharbitis purpurea (Efficacy in %) (Pharbitis purpurea [4]) [%]	Matricaria inodora (Efficacy in %) (Matricaria inodora [5]) [%]	Veronica persica (Efficacy in %) (Veronica persica) [%]	Viola tricolor (Efficacy in %) (Viola tricolor [6]) [%]	Amaranthus retroflexus (Efficacy in %) (Amaranthus retroflexus [7]) [%]	Polygonum convolvulus (Efficacy in %) (Polygonum convolvulus) [%]	Abutilon theophrasti (Efficacy in %) (Abutilon theophrasti [8]) [%]	Stellaria media (Efficacy in %) (Stellaria media) [%]	other results
20	0	0	20	CC(Sc1cc(-n2c(=O)cc(C(F)(F)F)n(C)c2=O)c(F)cc1Cl)C(=O)OC1CCSCC1 (stereo not drawn) [I.1-132]	100	100	100	100	100	100	100	80	Triticum aestivum (Efficacy in %) (Triticum aestivum; application rate 5 g/ha): 10%; Matricaria inodora (Efficacy in %) (Matricaria inodora [9]; application rate 80 g/ha): 100%; Viola tricolor (Efficacy in %) (Viola tricolor [10]; application rate 80 g/ha): 90%; Amaranthus retroflexus (Efficacy in %) (Amaranthus retroflexus [11]; application rate 80 g/ha): 100%; Abutilon theophrasti (Efficacy in %) (Abutilon theophrasti [12]; application rate 80 g/ha): 100%
–	–	0	0	Cc1c(C(F)(F)F)n(C)c(=O)n(-c2cc(SC(CC(C)C)C(=O)OCC3CCCO3)c(Cl)cc2F)c1=O (stereo not drawn) [I.14-71]	100	–	100	–	100	–	100	–	Glycine max (Efficacy in %) (Glycine max [13]): 0%; Triticum aestivum (Efficacy in %) (Triticum aestivum; application rate 20 g/ha): 0%
0	10	–	–	COCCOCCOC(=O)C(C)Sc1cc(-n2c(=O)cc(C(F)(F)F)n(C)c2=O)c(F)cc1Cl (stereo not drawn) [I.1-23]	–	–	–	–	–	–	–	–	Oryza sativa (Efficacy in %) (Oryza sativa; application rate 5 g/ha): 10%; Setaria viridis (Efficacy in %) (Setaria viridis [14]): 100%; Pharbitis purpurea (Efficacy in %) (Pharbitis purpurea [15]): 100%; Matricaria inodora (Efficacy in %) (Matricaria inodora [9]; application rate 320 g/ha): 100%; Echinochloa crus-galli (Efficacy in %) (Echinochloa crus-galli [16]): 100%; Viola tricolor (Efficacy in %) (Viola tricolor [10]; application rate 320 g/ha): 100%; Amaranthus retroflexus (Efficacy in %) (Amaranthus retroflexus [11]; application rate 320 g/ha): 100%; Abutilon theophrasti (Efficacy in %) (Abutilon theophrasti [12]; application rate 320 g/ha): 100%
–	–	–	–	CC(C)C(Sc1cc(-n2c(=O)cc(C(F)(F)F)n(C)c2=O)c(F)cc1Cl)C(=O)NCC1CCCO1 (stereo not drawn) [I.6-221, 2-({2-Chloro-4-fluoro-5-[3-methyl-2,6-dioxo-4-(trifluoromethyl)-3,6-dihydropyrimidin-1(2H)-yl]phenyl}sulfanyl)-3-methyl-N-(tetrahydrofuran-2-ylmethyl)butanamide]	100	100	100	100	100	100	100	80	Setaria viridis (Efficacy in %) (Setaria viridis [17]): 100%; Lolium rigidum (Efficacy in %) (Lolium rigidum): 80%; Echinochloa crus-galli (Efficacy in %) (Echinochloa crus-galli [18]): 80%; Digitaria sanguinalis (Efficacy in %) (Digitaria sanguinalis): 100%; Alopecurus myosuroides (Efficacy in %) (Alopecurus myosuroides): 90%
